{"source": "patent US20240247031A1", "about": "“COMPOSITION FOR TREATING CANCER CONTAINING TELOMERASE-TARGETING GNRH ANTAGONIST-DERIVED PEPTIDE HS1002” (Research & Business Foundation Sungkyunkwan University, priority 2023, published 2024)", "key": {"[1]": {"system": "AKT, ERK1/2, and mTOR pathways", "assay": "Western blot of hTERT-regulating signaling proteins in LNCaP (FIG. 13)", "type": "cell-based, human", "details": "LNCaP cells", "description": "The cells and tumor tissues were homogenized using the PRO-PREP™ extraction solution (iNtRON Biotechnology, Seongnam, Korea). After incubation, the homogenate was centrifuged at 16,000×g for 20 min at 4° C., and the supernatant was collected for western blot analysis. Subsequently, an equivalent quantity of protein was separated using sodium dodecyl sulfate polyacrylamide gels and transferred onto a polyvinylidene difluoride (PVDF) membrane. The PVDF membranes were incubated with the primary antibodies overnight at 4° C., washed with tris-buffered saline, and then incubated with HRP-conjugated anti-mouse or anti-rabbit antibodies. The bands were visualized using a ChemiDoc imaging system (Bio-Rad, Hercules, CA, USA). The band intensities were determined using an Image J software.\nFurthermore, a western blot analysis assessed the expression levels of signaling pathway proteins that regulate hTERT in LNCaP cells treated with HS1002. […] In addition, the expression of AKT, ERK1/2, and mTOR was unchanged in both the control and HS1002 groups (FIG. 13)."}, "[2]": {"system": "LNCaP", "assay": "cells", "type": "cell-based, human", "details": "human, 48 h", "description": "(§1) To evaluate anticancer activities of the produced peptides on various types of cancer cells, MTT analysis was performed. Human prostate cancer cell lines (LNCaP, PC3, and DU145), human breast cancer cell lines (MDA-MB-231 and MCF-7), lung cancer cell line (A549), and ovarian cancer cell line (SKOV3) were cultured in RPMI media supplemented with 1% penicillin/streptomycin and 1% fetal bovine serum (all from Life Technologies, Grand Island, NY). The cells were seeded in 96-well plates containing 100 μL of growth media for 24 h. The media were removed, and then 100 μL of the peptide (solvent DPBS) at each concentration was added to each well and incubated at 37° C. for 48 h. After incubation for 48 h, 100 μL of MTT reagent was added to each well. The cells were incubated at 37° C. for 4 h, and then the supernatant was removed. Formazan crystals were dissolved in 100 μL of DMSO with gentle stirring at 37° C. for 10 min. The absorbance per well was measured at 540 nm using a VERSA max microplate reader (Molecular Devices Corp.)."}, "[3]": {"system": "MCF-7", "assay": "cells", "type": "cell-based, human", "details": "human, 48 h", "description": "as §1"}, "[4]": {"system": "BAX, C-PARP, Bcl-2 in LNCaP", "assay": "Western blot of proteins involved in apoptosis (FIG. 9)", "type": "cell-based, human", "details": "different concentrations, 48 h", "description": "The prostate cancer cell line (LNCaP) was seeded into six-well plates and then incubated in an incubator for one day. The peptides were diluted in fresh media and then used to treat the cells. After 48 h, the media were removed, the plates were washed twice with DPBS, and 1 mL of trypsin was placed in each well to separate the cells, and 5 mL of media were added to each well to dilute the trypsin, followed by centrifugation at 1000 rpm for 5 min, thereby preparing the cells. Thereafter, proteins were extracted using a Pro-prep protein extraction kit, separated by electrophoresis, and blotted onto a membrane. The membrane was blocked by a Blotting-Grade Blocker at room temperature for 1 hour, and then primary antibodies (1000:1) were added, followed by incubation at 4° C. for one day. Thereafter, the membrane was repeatedly washed with 1×TBST (Tris 25 g, NaCl 120 g in D.W.+[…] 0.1%) every 10 min for 1 h. Then, secondary antibodies (10000:1) were added, followed by incubation at room temperature for 1 h, and then the membrane was repeatedly washed with 1×TBST every 10 min for 1 h. After incubation with […] substrates for 5 min, desired protein bands were identified using a Chemi-doc system."}, "[5]": {"system": "Ki-67 and hTERT in LNCaP tumor tissue", "assay": "Ki-67 immunohistochemistry and hTERT immunoblotting in xenograft tumor tissue (FIG. 18)", "type": "in vivo, mouse", "details": "s.c. administration, compared with the control group", "description": "Mice were sacrificed, and the excised tumors were fixed in 10% formalin and impregnated with paraffin. For pathological examination, immunohistochemistry was performed by the avidin-biotin complex method using Ki-67 antibodies. The immune response was visualized with a reagent (3,3-diaminobenzidine) and counter-stained with Mayer's hematoxylin. TUNEL assay in tissue was performed using ApopTag Plus Peroxidase in Situ Apoptosis Detection kits (Intergen, Purchase, NY)) according to the manufacturer's indications. In summary, paraffin was removed from slides, and the slides were placed in 3% hydrogen peroxide to inhibit endogenous peroxidase. The slides were incubated in a reaction buffer containing an enzyme (terminal deoxynucleotidyl transferase) at 37° C. for 1 h. The slides were incubated with peroxidase-conjugated anti-digoxigenin antibodies for 30 min, and the reaction product was visualized with a solution containing 2 mmol hydrogen peroxide (0.03% 3,3-diaminobenzidine solution). Counterstaining was performed with 0.5% methyl green. Ki-67- and TUNEL-positive cells were counted and expressed as an average of the five highest areas within a single×200 field. A portion of tumor tissue was homogenized, followed by immunoblotting for hTERT."}}}
{"smiles": "CCNC(=O)[C@@H]1CCCN1C(=O)[C@@H](NC(=O)[C@H](Cc1ccccc1)NC(=O)[C@H](CCCNC(=N)N)NC(=O)[C@H](CC(C)C)NC(=O)[C@H](CCCNC(=N)N)NC(=O)[C@H](Cc1ccc(O)cc1)NC(=O)[C@H](CO)NC(=O)[C@H](Cc1c[nH]c2ccccc12)NC(=O)[C@H](Cc1c[nH]cn1)NC(=O)[C@@H]1CCC(=O)N1)[C@@H](C)CC", "note": "[HS1002]", "values": [{"measurement": "expression of p-AKT", "setting": "[1]", "value": "significantly downregulated"}, {"measurement": "expression of p-ERK1/2", "setting": "[1]", "value": "significantly downregulated"}, {"measurement": "expression of p-mTOR", "setting": "[1]", "value": "significantly downregulated"}, {"measurement": "expression of AKT, ERK1/2, and mTOR", "setting": "[1]; total proteins", "value": "unchanged"}, {"measurement": "Cytotoxicity (IC50) LNCaP", "setting": "[2]", "value": "6.83 ± 0.72", "unit": "µg/mL"}, {"measurement": "Cytotoxicity (IC50) MCF-7", "setting": "[3]", "value": "53.31 ± 1.79", "unit": "µg/mL"}, {"measurement": "expression level of BAX", "setting": "[4]", "value": "increased"}, {"measurement": "expression level of Bcl-2", "setting": "[4]", "value": "decreased"}, {"measurement": "expression level of C-PARP", "setting": "[4]", "value": "increased"}, {"measurement": "Ki-67 protein expression level in tumor tissues", "setting": "[5]", "value": "distinctively reduced"}, {"measurement": "hTERT protein expression level in tumor tissues", "setting": "[5]", "value": "distinctively reduced"}]}
